Source: patent US9023998B2, “Near infrared fluorogen and fluorescent activating proteins for in vivo imaging and live-cell biosensing” (Carnegie Mellon University, priority 2013, dated 2015)

Tests used:
[1] = system: HEK293 cells expressing dL9.5; experiment: Confocal imaging of HEK293 cells expressing dL9.5 in various cellular contexts; assay type: cell-based; settings: HEK293; SKC728 100 nM, SKC602 50 nM
Source text: The expressed construct was imaged using an Andor Revolution XD spinning disk confocal (GFP 488:525/50, dL9.5 (SEQ. ID. NO. 3) 640:685/70 AND 640:794/160, 60×1.49 NA oil immersion objective) and the results are shown in FIG. 5. […] The fluorogen was not washed away prior to imaging.
Imaging conditions were similar to those described for obtaining FIG. 5.
CYTOPLASM. HEK293 cells were transfected with, and stably expressing the pCYdL9.5eGFP vector, were thawed from a cryostock and maintained in DMEM/10% FBS for four passages prior to fluorescence imaging procedures. Immediately prior to imaging, growth media was exchanged for HBSS (pH 7.4) supplemented with SKC602 (200 nM final concentration). The cells were allowed to recover at 37° C. with 5% CO2 for 20-30 minutes, and fluoromodule activity under in vivo conditions within the cytoplasm was imaged using an Andor Revolution XD spinning disk confocal microscope (60×1.49 NA oil immersion objective, excitation at 640 nm, emission in far-red: 685/70 filter, and NIR: 794/160 filter). The same cells were also imaged for eGFP activity (excitation at 488 nm, emission via 525/50 nm filter). […] In accordance with the fluoromodule emission spectrum shown in FIG. 2, this emission filter allows the microscope camera to detect a large portion of the fluoromodule emission, and consequently, the observed signal appears brighter. One must note that intensities cannot be directly compared between channels, due to considerations non-exclusively including: differences in excitation light intensities, exposure and capture times, the transmission profile of each emission filter, and the quantum efficiency of the iXON3 DU897 (back-illuminated) camera across the range of emitted wavelengths. An evenly distributed fluorescence signal is observed in these cells, with no bright foci that would indicate protein aggregation, and the fluoromodule signal intensity scales with that of eGFP.
PLASMA MEMBRANE. […]

dL9.5 (SEQ. ID. NO. 3) = experiment: Binding of fluorogen by FAP dL9.5
Source text: The V70A mutation was propagated to both light chains to produce dL9.3 (SEQ. ID. NO. 31), which was immediately subjected to mutagenesis and screening in the surface-display format described previously (Chao, et al., Nature Protocols (2006)) in the presence of SKC602. The brightest clone collected from this screen was designated dL9.5 (SEQ. ID. NO. 3), and sequencing described exactly two mutations—tyrosine 96 to histidine—on both light chains.

| SMILES | Membrane permeance shown by subcellular labeling (plasma membrane exterior / mitochondrial matrix) [1] | Binding by dL9.5 (dL9.5 (SEQ. ID. NO. 3)) |
| --- | --- | --- |
| CN(C)c1ccc(C(/C=C/c2ccc(N(C)CCCCC(=O)NC(CCS(=O)(=O)O)C(=O)O)cc2)=C2C=CC(=[N+](C)C)C=C2)cc1 (stereo not drawn) [SKC728] | membrane impermeant | bind |
| CN(C)c1ccc(/C=C/C(=C2C=CC(=[N+](C)C)C=C2)c2ccc(N(C)C)cc2)cc1 [SKC602, (E)-N-(4-(1,3-bis(4-(dimethylamino)phenyl)allylidene)cyclohexa-2,5-dien-1-ylidene)-N-methylmethanaminium] | membrane permeant | – |
